This is an account of results in patent US7645802B2 (Biovail Laboratories International SRL., priority 2005, dated 2010).

Structures can show the parent of a compound that is named as a salt.

Format in all cases: physicochemical
A short description of series [1]: TGA of bupropion salts. The note with it: at 400° C. The protocol:
2-5 mg of each salt was placed in an aluminium pan and covered with its lid. DSC was run for each sample at the rate of 10 degrees C./min (for HBr salt, different rates were used to investigate for polymorphs) from 30 degrees C. to 400 degrees C. TGA was also used for each of the HBr, HCl, maleate and tosylate salts.
(§1) The salts were analyzed by DSC (at 10° C./min from 30° C. up to 400° C.) and the pH (aq. 0.5%), and the moisture content by KF were also measured. The TGA was performed on the HCl, maleate, tosylate and HBr salts.

The nature of series [2]: Closed vial / closed glass bottle stability (40° C./75% RH) of bupropion salt APIs.
Series [3] in a line: moisture content by KF and pH (aq. 0.5%) of bupropion salts. The note with it: salt as received. On the procedure: The eight salts were first evaluated by HPLC, KF, pH and DSC for purity, water content, aqueous pH and possible polymorphs.
as §1

Where [4] appears, read: 10-Days, closed glass bottle 40 C./75% RH, HBr Lot# STN07491, HCl Lot# STN06973.
The mark [5] stands for this setting: 10 Days, closed glass bottle 40 C./75% RH, HBr Lot# STN07492, HCl Lot# STN06978.
[6] abbreviates: 14-Days, closed glass bottle 40° C./75% RH, HBr Lot# STN07492, HCl L# STN06973.
[7] abbreviates: 24 Days, closed glass bottle 40° C./75% RH, HBr Lot# STN07492, HCl L# STN06973.
[8] abbreviates: 24 Days, closed glass bottle 40° C./75% RH, HBr Lot# STN07492, HCl L# STN06973, hydrochloride.
The mark [9] stands for this setting: Initial, closed glass bottle 40 C./75% RH, HBr Lot# STN07491, HCl Lot# STN06973.
[10] abbreviates: Initial, closed glass bottle 40 C./75% RH, HBr Lot# STN07492, HCl Lot# STN06978.
Where [11] appears, read: Initial, closed glass bottle 40° C./75% RH, HBr Lot# STN07492, HCl L# STN06973.

As to `CC(NC(C)(C)C)C(=O)c1cccc(Cl)c1` (stereo not shown) [Bupropion HCl, bupropion hydrochloride], the “residue (TGA)” value in series [1] was “minimal residues”. Further, the “% Assay” value in series [2] (setting [4]) is reported as 96.3%; in series [2] (setting [5]), 96.5%; in series [2] (setting [6]), 98.5%; in series [2] (setting [7]), 98.5%; in series [2] (setting [9]) it was 99.4%; in series [2] (setting [10]), 99.1%. The “% Assay” value in series [2] (setting [11]) was determined as 100.4%. For the same compound, the “% Impurities 3-CBZ” value was found to be 0.110% in series [2] (setting [4]); 0.278% in series [2] (setting [5]); 0.019% in series [2] (setting [6]); 0.082% in series [2] (setting [7]); 0.003% in series [2] (setting [9]); 0.002% in series [2] (setting [10]). Also, the “% Impurities 3-CBZ” value in series [2] (setting [11]) is given as 0.002%. The “% Impurities 20U78/dilu” value in series [2] (setting [4]) stood at 0.047%; in series [2] (setting [5]) it was 0.057%; in series [2] (setting [6]) it was 0.038%; in series [2] (setting [8]) it was 0.040%; in series [2] (setting [9]), 0.040%; in series [2] (setting [10]) it was 0.04%. In addition, the “% Impurities 20U78/dilu” value in series [2] (setting [11]) is 0.043%. In addition, the “% Impurities 827U76” value in series [2] (setting [4]) is given as 0.045%; in series [2] (setting [5]), 0.141%; in series [2] (setting [7]) it was 0.102%. Moreover, the “% Impurities 852U77” value in series [2] (setting [4]) amounted to 0.047%; in series [2] (setting [5]), 0.124%; in series [2] (setting [6]) it was 0.010%; in series [2] (setting [7]), 0.023%; in series [2] (setting [11]), 0.003%. The “% Impurities Total unknown” value is 0.187% in series [2] (setting [4]); 0.137% in series [2] (setting [5]); 0.038% in series [2] (setting [6]); 0.049% in series [2] (setting [7]); 0.053% in series [2] (setting [9]); 0.165% in series [2] (setting [10]). Further, the “% Impurities Total unknown” value in series [2] (setting [11]) is reported as 0.044%. Also, the “% Impurities Total (%)” value was found to be 0.44% in series [2] (10-Days, closed glass bottle 40 C./75% RH, HBr Lot# STN07491, HCl Lot# STN06973, hydrochloride); 0.74% in series [2] (10 Days, closed glass bottle 40 C./75% RH, HBr Lot# STN07492, HCl Lot# STN06978, hydrochloride); 0.11% in series [2] (14-Days, closed glass bottle 40° C./75% RH, HBr Lot# STN07492, HCl L# STN06973, hydrochloride); 0.30% in series [2] (setting [8]); 0.10% in series [2] (Initial, closed glass bottle 40 C./75% RH, HBr Lot# STN07491, HCl Lot# STN06973, hydrochloride); 0.21% in series [2] (Initial, closed glass bottle 40 C./75% RH, HBr Lot# STN07492, HCl Lot# STN06978, hydrochloride). Moreover, the “% Impurities Total (%)” value in series [2] (Initial, closed glass bottle 40° C./75% RH, HBr Lot# STN07492, HCl L# STN06973, hydrochloride) was determined as 0.09%.

With `Br.CC(NC(C)(C)C)C(=O)c1cccc(Cl)c1` (stereo not shown) [bupropion hydrobromide], in series [3], the “moisture content KF” value worked out at 0.00% and the “pH of the aqueous solution of 0.5%” value is 5.92.
